{"source": "patent US11980607B2", "about": "“Methods of treating malignant lymphoproliferative disorders” (Actuate Therapeutics Inc., priority 2018, dated 2024)", "key": {"[1]": {"system": "Caspase 3/7 activity in lymphoma cells", "test": "EnzChek Caspase 3 assay", "assay_type": "cell-based", "conditions": "24 hours", "description": "An EnzChek caspase 3 assay (Thermo Fisher Scientific) was performed in accordance with the manufacturer's instructions. 100,000 cells were plated in a 12-well plate and treated with varying concentrations of 9-ING-41 for 24 hours in duplicate. At the end of treatment, cells were centrifuged at 200 rcf for 5 minutes and washed once with 1× PBS and lysed in 50 μL of 1× lysis buffer provided by the kit. For efficient lysis, cells were subjected to a single freeze-thaw cycle. The lysed cells were centrifuged again to remove cell debris, and the supernatant was used in the assay. 50 μL of 2× substrate working solution containing Z-DEVD-R110 substrate was added to the cell lysate, with a subsequent incubation at room temperature for 45 minutes. […] Both of these products were then measured using a Biotek synergy 2 fluorescent plate reader at corresponding wavelengths (excitation 496 nm/emission 520 nm). The fluorescent reading was normalized to the amount of protein in the cell lysate as determined via standard BCA assay (Pierce Thermo Fisher Scientific). Relative fluorescence was calculated after setting the no-treatment control to 1. […]"}, "Mantle Cell lymphoma": {"system": "Mantle Cell lymphoma", "test": "Treatment of Mantle Cell Lymphoma in a human", "assay_type": "in vivo", "conditions": "3 mg/kg per day, six 21 day cycles", "description": "A human suffering from Mantle Cell lymphoma is administered 3 mg/kg per day of 9-ING-41 for six 21 day cycles. After treatment, the human's MCL is in remission."}, "Jeko cells": {"system": "Jeko cells", "test": "Mitotic stage morphology (Wright stain, differential counting)", "assay_type": "cell-based, human", "conditions": "1.0 uM, 24 hours", "description": "(A) Cartoon depiction of the sequential steps (M1-M5) during mitosis (purchased from Shutterstock and modified). (B). Representative Wright stain images of Jeko cells untreated and treated with 1.0 uM 9-ING-41 for 24 hours. […] (C). Bar chart showing the number of mitotic M1-M5 cells identified when 100 untreated or 9-ING-41 treated Jeko cells were counted.\nAlthough cells arrested in G2/M appear as a single DNA content (4N) peak on a flow cytometry histogram (FIG. 6A), there are actually at least 5 sequential steps (M1-M5) in G2/M critical to successful cell division. These include prophase (M1, chromosome condensation, mitotic spindle formation starts), prometaphase (M2, nuclear membrane breakdown, centrosome polarization), metaphase (M3, chromosome pairs align middle plane), anaphase (M4, daughter chromatids separate), telophase (M5, reformation of daughter nuclei), and the final cytokinesis (separation of two daughter cells). Each of these discrete steps has a unique identifiable nuclear morphology on Wright's stained cells (depicted in FIG. 7A). The morphology of untreated and 9-ING-41 treated Jeko cells to determine at what stage they become arrested was examined. […] These observations support the conclusion that GSK3 activity is necessary for the progression of mitotic prophase."}, "[2]": {"system": "lymphoma cell lines (Jeko, Mino, OCI-Ly3)", "test": "DNA cell cycle analysis", "assay_type": "cell-based, human", "conditions": "after as little as 24 hours of treatment, all lines tested", "description": "(B) Cell cycle profiles of parental Ly-1 cells and GSK3α, GSK3β, GSK-3αβ knockout subclones. Inset: Western blot image showing the depletion of GSK3α and GSK-3β protein in the knockout Ly-1 subclones.\nCells were fixed and permeabilized with cold ethanol, treated with RNase, and stained with propidium iodide (Sigma). Stained cells were run on a BD FACS Calibur using CELLQuest PRO Software (Becton Dickinson). Data were analyzed with FlowJo v.X software (Tree Star Inc).\nThe effect of 9-ING-41 on lymphoma cell cycle kinetics was examined. […] To further determine whether this G2/M arrest specifically resulted from GSK3β inhibition, the cell cycle profile of parental (wildtype), GSK3A, GSK3B, and GSK3A/B knockout Ly-1 subclones was examined. […] These cell cycle abnormalities of GSK3B-null and GSK3A/B-null Ly-1 cells are subtle and have little impact on the survival of the Ly-1 progeny, likely through Ly-1 cell line specific compensatory mechanisms."}, "[3]": {"system": "NF-κB, DNA damage and apoptotic pathways in lymphoma cell lines", "test": "Luminex analysis of NF-κB, DNA damage and apoptotic pathway signaling", "assay_type": "cell-based", "conditions": "1 μM, 48 hours", "excerpt": "Signaling changes in NF-κB [MILLIPLEXMAP NF-κB Signaling Magnetic Bead Kit 6-plex Kit, EMD Millipore, analytes: c-MYC, FADD (Ser194), IκBα (Ser32), IKKα/β (Ser177/Ser181), NF-κB (Ser536), TNFR1], DNA damage [MILLIPLEX MAP DNA Damage/Genotoxicity Magnetic Bead Panel, EMD Millipore, analytes: ATR (total), Chk1 (Ser345), Chk2 (Thr68), H2A.X (Ser139), MDM2 (total), p21 (Total), p53 (Ser15)], and apoptotic pathways [Bio-plex pro RBM apoptosis panel 2 and 3, Bio-Rad, analytes: Bad, Bax/Bcl-2 dimer, Bcl-xL, Bim, Mcl-1, active caspase 3, Bcl-xL/Bak dimer, Mcl-1/Bak dimer, survivin] associated with 1 μM 9-ING-41 treatment for 48 hours as compared to no-treatment controls were determined using Luminex multiplex technology with a FLEXMAP 3D instrument, as per manufacturer instructions. Cells were lysed in MILLIPLEX MAP Lysis buffer supplemented with protease inhibitor cocktail (Sigma) and phosphatase inhibitor cocktails 2 and 3 (Sigma) and, after BCA protein determination, 15 μg of protein was added to each well. All samples were run in duplicate and changes in MFI or absolute quantity between 9-ING-41-treated cells and nontreated control were analyzed, and an unpaired t-test was performed to determine statistical significance."}}}
{"smiles": "Cn1cc(C2=C(c3coc4ccc(F)cc34)C(=O)NC2=O)c2cc3c(cc21)OCO3", "note": "[9-ING-41, 3-(5-Fluorobenzofuran-3-yl)-4-(5-methyl-5H-[1,3]dioxolo[4,5-f]indol-7-yl)pyrrole-2,5-dione]", "values": [{"measurement": "Concentration giving an increase in Caspase 3/7 activity", "setting": "[1]", "result": "≥ 0.5", "unit": "µM"}, {"measurement": "Outcome after treatment", "setting": "Mantle Cell lymphoma", "result": "in remission"}, {"measurement": "Mitotic stages seen among 100 mitotic cells", "setting": "Jeko cells", "result": "only prophase (M1) cells"}, {"measurement": "Cell cycle effect", "setting": "[2]", "result": "cell cycle blockage at G2/M"}, {"measurement": "Total c-MYC levels", "setting": "[3]; Karpas 422 and TMD8 cell lines", "result": "significant reduction"}, {"measurement": "DNA damage signaling, p-H2A.X (Ser139)", "setting": "[3]; SUDHL-4 and Karpas 422 cell lines, p<0.05", "result": "increased"}, {"measurement": "phospho-p53 (Ser15)", "setting": "[3]; SUDHL-4 and TMD8 cells", "result": "significant increase"}, {"measurement": "Reduction in Bcl-x1/Bak dimer expression", "setting": "[3]; all cell lines except TMD8, p<0.05", "result": "~1.5", "unit": "fold"}, {"measurement": "Reduction in Mcl-1/Bak dimers", "setting": "[3]; all lymphoma cell lines except KPUM-UH1, p<0.05", "result": "~2", "unit": "fold"}, {"measurement": "Active caspase 3", "setting": "[3]; all lymphoma cell lines except TMD8", "result": "increase in active caspase 3"}, {"measurement": "Reduction in survivin", "setting": "[3]; all lymphoma cell lines except TMD8, p<0.05", "result": "~2", "unit": "fold"}]}
